Experiments:
[1] = biological target: Tyrosine-protein kinase ITK/TSK (Homo sapiens) (UniProt Q08881); details: Compound concentration 1000.0 nM
[2] = tested on: Mast/stem cell growth factor receptor Kit (Homo sapiens), P10721 [V559D]; details: Compound concentration 1000.0 nM
[3] = biological target: Tyrosine-protein kinase Lck (Homo sapiens) (UniProt P06239); details: Compound concentration 1000.0 nM
[4] = tested on: Phosphatidylinositol 4,5-bisphosphate 3-kinase catalytic subunit alpha isoform (Homo sapiens), P42336 [E545K]; details: Compound concentration 1000.0 nM
[5] = biological target: Mitogen-activated protein kinase 13 (Homo sapiens) (UniProt O15264); details: Compound concentration 1000.0 nM
Mitogen-activated protein kinase 13 (Homo sapiens), sequence (O15264 whole entry): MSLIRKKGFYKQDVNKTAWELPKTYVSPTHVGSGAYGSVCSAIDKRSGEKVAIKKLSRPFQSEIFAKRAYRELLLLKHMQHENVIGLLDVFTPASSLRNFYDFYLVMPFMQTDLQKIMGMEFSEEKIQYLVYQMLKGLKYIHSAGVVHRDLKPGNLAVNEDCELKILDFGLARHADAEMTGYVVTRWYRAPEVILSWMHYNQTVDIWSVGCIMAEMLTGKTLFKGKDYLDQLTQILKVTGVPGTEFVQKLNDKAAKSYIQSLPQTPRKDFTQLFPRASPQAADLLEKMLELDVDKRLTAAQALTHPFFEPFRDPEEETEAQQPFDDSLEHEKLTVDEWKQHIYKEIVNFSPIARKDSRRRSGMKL

[6] = biological target: G protein-coupled receptor kinase 3 (Homo sapiens) (UniProt P35626); details: Compound concentration 1000.0 nM
[7] = biological target: Mitogen-activated protein kinase 3 (Homo sapiens) (UniProt P27361); details: Compound concentration 1000.0 nM
[8] = biological target: 5-hydroxytryptamine receptor 5A (Homo sapiens) (UniProt P47898); details: Compound concentration 10.0 uM
5-hydroxytryptamine receptor 5A (Homo sapiens), sequence (P47898 whole entry): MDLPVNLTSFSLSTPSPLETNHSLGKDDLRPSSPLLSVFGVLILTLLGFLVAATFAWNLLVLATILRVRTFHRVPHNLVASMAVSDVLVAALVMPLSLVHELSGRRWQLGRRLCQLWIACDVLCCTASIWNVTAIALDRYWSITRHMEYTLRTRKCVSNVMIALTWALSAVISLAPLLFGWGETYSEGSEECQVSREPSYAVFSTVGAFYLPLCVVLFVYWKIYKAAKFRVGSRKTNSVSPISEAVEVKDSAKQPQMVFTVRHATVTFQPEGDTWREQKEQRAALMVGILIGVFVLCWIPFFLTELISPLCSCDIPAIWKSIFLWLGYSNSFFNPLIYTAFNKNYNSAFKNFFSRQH

[9] = biological target: Serine/threonine-protein kinase OSR1 (Homo sapiens) (UniProt O95747); details: Compound concentration 1000.0 nM
[10] = tested on: Receptor-type tyrosine-protein kinase FLT3 (Homo sapiens), P36888 [R834Q]; details: Compound concentration 1000.0 nM
[11] = biological target: MAP kinase-activated protein kinase 2 (Homo sapiens) (UniProt P49137); details: Compound concentration 1000.0 nM
[12] = tested on: Proto-oncogene tyrosine-protein kinase receptor Ret (Homo sapiens), P07949 [V804M]; details: Compound concentration 1000.0 nM
[13] = biological target: SRSF protein kinase 2 (Homo sapiens) (UniProt P78362); details: Compound concentration 1000.0 nM
[14] = biological target: Fibroblast growth factor receptor 1 (Homo sapiens) (UniProt P11362); details: Compound concentration 1000.0 nM
[15] = biological target: Cyclin-dependent kinase 8 (Homo sapiens) (UniProt P49336); details: Compound concentration 1000.0 nM
[16] = tested on: Receptor-type tyrosine-protein kinase FLT3 (Homo sapiens), P36888 [UNDEFINED MUTATION]; details: Compound concentration 1000.0 nM
[17] = biological target: Phosphatidylinositol 4,5-bisphosphate 3-kinase catalytic subunit gamma isoform (Homo sapiens) (UniProt P48736); details: Compound concentration 1000.0 nM
Phosphatidylinositol 4,5-bisphosphate 3-kinase catalytic subunit gamma isoform (Homo sapiens), sequence (P48736 whole entry, looked up, canonical isoform): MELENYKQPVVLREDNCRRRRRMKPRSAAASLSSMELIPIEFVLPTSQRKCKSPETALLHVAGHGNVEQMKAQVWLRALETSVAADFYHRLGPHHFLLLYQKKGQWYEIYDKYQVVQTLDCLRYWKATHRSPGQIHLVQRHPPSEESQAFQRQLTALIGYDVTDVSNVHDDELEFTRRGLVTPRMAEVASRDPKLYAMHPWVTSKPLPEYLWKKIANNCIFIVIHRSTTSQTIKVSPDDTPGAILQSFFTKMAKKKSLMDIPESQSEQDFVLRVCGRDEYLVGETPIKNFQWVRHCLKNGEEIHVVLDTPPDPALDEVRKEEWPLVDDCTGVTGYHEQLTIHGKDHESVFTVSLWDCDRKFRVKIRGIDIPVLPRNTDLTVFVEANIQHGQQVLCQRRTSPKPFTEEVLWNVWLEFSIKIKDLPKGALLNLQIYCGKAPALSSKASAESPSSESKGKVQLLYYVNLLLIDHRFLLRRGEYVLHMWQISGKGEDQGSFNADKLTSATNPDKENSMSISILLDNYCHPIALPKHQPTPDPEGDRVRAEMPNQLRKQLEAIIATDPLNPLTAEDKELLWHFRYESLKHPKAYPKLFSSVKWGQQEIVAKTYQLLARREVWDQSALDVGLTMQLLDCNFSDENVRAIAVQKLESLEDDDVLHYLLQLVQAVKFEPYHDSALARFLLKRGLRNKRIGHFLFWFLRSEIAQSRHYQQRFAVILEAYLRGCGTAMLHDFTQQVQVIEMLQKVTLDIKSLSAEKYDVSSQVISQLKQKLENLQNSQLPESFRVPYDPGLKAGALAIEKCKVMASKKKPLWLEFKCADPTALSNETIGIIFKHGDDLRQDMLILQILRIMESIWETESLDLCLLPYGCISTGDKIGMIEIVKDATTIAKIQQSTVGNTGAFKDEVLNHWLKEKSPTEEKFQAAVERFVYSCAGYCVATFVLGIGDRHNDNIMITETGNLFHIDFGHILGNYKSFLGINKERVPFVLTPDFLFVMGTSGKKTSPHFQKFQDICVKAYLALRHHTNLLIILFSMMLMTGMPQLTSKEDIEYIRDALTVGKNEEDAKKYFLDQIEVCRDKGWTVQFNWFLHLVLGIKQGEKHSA

[18] = biological target: Activin receptor type-1 (Homo sapiens) (UniProt Q04771); details: Compound concentration 1000.0 nM
Activin receptor type-1 (Homo sapiens), sequence (Q04771 whole entry): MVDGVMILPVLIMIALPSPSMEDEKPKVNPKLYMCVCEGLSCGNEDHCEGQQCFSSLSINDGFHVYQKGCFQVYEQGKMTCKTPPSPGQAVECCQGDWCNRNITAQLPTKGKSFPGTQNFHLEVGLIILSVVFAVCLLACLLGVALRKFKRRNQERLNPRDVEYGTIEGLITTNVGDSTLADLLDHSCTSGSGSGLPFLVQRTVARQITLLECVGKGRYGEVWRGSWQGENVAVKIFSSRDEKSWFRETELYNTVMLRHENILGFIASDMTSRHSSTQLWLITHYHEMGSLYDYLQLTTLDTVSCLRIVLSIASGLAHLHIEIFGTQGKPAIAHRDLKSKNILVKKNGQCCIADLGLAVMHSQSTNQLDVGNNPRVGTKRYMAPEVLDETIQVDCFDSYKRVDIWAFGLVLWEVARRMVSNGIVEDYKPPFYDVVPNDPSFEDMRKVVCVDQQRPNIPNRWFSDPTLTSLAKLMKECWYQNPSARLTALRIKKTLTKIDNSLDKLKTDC

[19] = biological target: Serine/threonine-protein kinase D2 (Homo sapiens) (UniProt Q9BZL6); details: Compound concentration 1000.0 nM
Serine/threonine-protein kinase D2 (Homo sapiens), sequence (Q9BZL6 whole entry): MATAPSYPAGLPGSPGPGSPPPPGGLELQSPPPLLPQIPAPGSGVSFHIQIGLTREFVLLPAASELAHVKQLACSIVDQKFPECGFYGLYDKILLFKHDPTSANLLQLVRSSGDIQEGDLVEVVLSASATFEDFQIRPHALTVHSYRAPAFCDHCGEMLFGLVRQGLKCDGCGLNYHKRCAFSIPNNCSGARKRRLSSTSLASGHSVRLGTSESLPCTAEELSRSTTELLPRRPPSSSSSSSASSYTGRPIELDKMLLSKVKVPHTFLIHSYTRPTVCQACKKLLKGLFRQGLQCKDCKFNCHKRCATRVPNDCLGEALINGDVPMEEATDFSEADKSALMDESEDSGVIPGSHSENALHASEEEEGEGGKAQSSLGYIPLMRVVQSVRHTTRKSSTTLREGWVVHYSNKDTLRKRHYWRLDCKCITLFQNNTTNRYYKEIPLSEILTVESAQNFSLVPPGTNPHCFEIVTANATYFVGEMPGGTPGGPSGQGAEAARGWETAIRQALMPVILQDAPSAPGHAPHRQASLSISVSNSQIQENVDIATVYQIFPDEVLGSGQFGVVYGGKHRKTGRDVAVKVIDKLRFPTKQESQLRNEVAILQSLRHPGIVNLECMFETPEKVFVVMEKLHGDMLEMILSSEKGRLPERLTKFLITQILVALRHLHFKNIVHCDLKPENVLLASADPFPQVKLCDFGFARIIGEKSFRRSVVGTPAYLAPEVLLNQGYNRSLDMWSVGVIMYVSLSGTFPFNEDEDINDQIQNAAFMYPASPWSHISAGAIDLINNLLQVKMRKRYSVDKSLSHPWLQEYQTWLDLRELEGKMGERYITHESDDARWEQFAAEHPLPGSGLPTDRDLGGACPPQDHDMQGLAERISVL

[20] = biological target: Serine/threonine-protein kinase TBK1 (Homo sapiens) (UniProt Q9UHD2); details: Compound concentration 1000.0 nM
[21] = biological target: Dual specificity mitogen-activated protein kinase kinase 4 (Homo sapiens) (UniProt P45985); details: Compound concentration 1000.0 nM
[22] = biological target: TRAF2 and NCK-interacting protein kinase (Homo sapiens) (UniProt Q9UKE5); details: Compound concentration 1000.0 nM
[23] = tested on: Receptor-type tyrosine-protein kinase FLT3 (Homo sapiens), P36888 [K663Q]; details: Compound concentration 1000.0 nM
[24] = biological target: Tyrosine-protein kinase HCK (Homo sapiens) (UniProt P08631); details: Compound concentration 1000.0 nM
[25] = biological target: Serine/threonine-protein kinase TAO3 (Homo sapiens) (UniProt Q9H2K8); details: Compound concentration 1000.0 nM
[26] = biological target: Serine/threonine-protein kinase SBK1 (Homo sapiens) (UniProt Q52WX2); details: Compound concentration 1000.0 nM
[27] = biological target: MAP kinase-activated protein kinase 5 (Homo sapiens) (UniProt Q8IW41); details: Compound concentration 1000.0 nM
[28] = biological target: Serine/threonine-protein kinase ULK3 (Homo sapiens) (UniProt Q6PHR2); details: Compound concentration 1000.0 nM
[29] = tested on: Phosphatidylinositol 4,5-bisphosphate 3-kinase catalytic subunit alpha isoform (Homo sapiens), P42336 [I800L]; details: Compound concentration 1000.0 nM
[30] = biological target: Proto-oncogene tyrosine-protein kinase ROS (Homo sapiens) (UniProt P08922); details: Compound concentration 1000.0 nM
[31] = biological target: Mitogen-activated protein kinase kinase kinase 15 (Homo sapiens) (UniProt Q6ZN16); details: Compound concentration 1000.0 nM
[32] = biological target: Serine/threonine-protein kinase D3 (Homo sapiens) (UniProt O94806); details: Compound concentration 1000.0 nM
[33] = biological target: Receptor-interacting serine/threonine-protein kinase 2 (Homo sapiens) (UniProt O43353); details: Compound concentration 1000.0 nM
[34] = tested on: Fibroblast growth factor receptor 3 (Homo sapiens), P22607 [G697C]; details: Compound concentration 1000.0 nM
[35] = biological target: Myosin-IIIb (Homo sapiens) (UniProt Q8WXR4); details: Compound concentration 1000.0 nM
[36] = biological target: Serine/threonine-protein kinase 4 (Homo sapiens) (UniProt Q13043); details: Compound concentration 1000.0 nM
[37] = biological target: cAMP-dependent protein kinase catalytic subunit PRKX (Homo sapiens) (UniProt P51817); details: Compound concentration 1000.0 nM
[38] = biological target: Homeodomain-interacting protein kinase 4 (Homo sapiens) (UniProt Q8NE63); details: Compound concentration 1000.0 nM
[39] = biological target: Receptor tyrosine-protein kinase erbB-4 (Homo sapiens) (UniProt Q15303); details: Compound concentration 1000.0 nM
Receptor tyrosine-protein kinase erbB-4 (Homo sapiens), sequence (Q15303 whole entry): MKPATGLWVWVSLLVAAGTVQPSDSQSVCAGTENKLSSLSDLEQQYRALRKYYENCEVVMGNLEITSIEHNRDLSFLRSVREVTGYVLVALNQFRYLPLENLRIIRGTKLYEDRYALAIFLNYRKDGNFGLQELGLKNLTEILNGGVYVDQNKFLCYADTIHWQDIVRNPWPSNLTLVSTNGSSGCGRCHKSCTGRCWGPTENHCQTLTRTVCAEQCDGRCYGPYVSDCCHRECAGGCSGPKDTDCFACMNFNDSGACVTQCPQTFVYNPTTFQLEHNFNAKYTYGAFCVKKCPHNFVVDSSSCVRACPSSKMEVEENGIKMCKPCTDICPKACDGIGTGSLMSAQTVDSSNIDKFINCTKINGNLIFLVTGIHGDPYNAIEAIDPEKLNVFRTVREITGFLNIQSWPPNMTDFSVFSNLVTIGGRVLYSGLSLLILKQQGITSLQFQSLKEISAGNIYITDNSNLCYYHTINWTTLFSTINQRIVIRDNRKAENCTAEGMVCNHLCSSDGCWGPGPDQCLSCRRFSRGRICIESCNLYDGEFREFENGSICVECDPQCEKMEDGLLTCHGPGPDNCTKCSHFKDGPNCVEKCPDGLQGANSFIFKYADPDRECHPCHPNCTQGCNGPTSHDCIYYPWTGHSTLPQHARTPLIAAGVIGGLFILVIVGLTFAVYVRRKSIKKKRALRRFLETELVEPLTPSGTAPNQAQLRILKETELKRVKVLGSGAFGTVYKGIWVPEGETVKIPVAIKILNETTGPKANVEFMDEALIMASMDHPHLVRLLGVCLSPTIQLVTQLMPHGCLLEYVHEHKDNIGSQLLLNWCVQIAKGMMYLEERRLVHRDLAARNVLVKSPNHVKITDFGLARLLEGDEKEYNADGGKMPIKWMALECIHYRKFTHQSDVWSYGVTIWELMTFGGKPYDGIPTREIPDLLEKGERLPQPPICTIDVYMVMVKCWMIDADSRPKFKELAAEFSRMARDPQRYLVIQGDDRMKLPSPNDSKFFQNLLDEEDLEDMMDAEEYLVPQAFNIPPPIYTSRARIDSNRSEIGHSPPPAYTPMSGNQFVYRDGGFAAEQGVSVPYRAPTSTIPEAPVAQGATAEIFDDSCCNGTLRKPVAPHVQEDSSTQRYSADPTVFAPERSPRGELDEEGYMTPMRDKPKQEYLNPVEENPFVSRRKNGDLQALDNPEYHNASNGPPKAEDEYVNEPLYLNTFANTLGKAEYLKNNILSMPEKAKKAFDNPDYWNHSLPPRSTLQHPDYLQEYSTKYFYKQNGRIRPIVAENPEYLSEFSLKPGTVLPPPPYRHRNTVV

[40] = biological target: Interleukin-1 receptor-associated kinase 3 (Homo sapiens) (UniProt Q9Y616); details: Compound concentration 1000.0 nM
[41] = biological target: STE20/SPS1-related proline-alanine-rich protein kinase (Homo sapiens) (UniProt Q9UEW8); details: Compound concentration 1000.0 nM
[42] = biological target: Activated CDC42 kinase 1 (Homo sapiens) (UniProt Q07912); details: Compound concentration 1000.0 nM
[43] = biological target: cAMP-dependent protein kinase catalytic subunit beta (Homo sapiens) (UniProt P22694); details: Compound concentration 1000.0 nM
[44] = biological target: Serine/threonine-protein kinase Nek5 (Homo sapiens) (UniProt Q6P3R8); details: Compound concentration 1000.0 nM

Tyrosine-protein kinase Lck (Homo sapiens), sequence (P06239 2-509 limits assumed): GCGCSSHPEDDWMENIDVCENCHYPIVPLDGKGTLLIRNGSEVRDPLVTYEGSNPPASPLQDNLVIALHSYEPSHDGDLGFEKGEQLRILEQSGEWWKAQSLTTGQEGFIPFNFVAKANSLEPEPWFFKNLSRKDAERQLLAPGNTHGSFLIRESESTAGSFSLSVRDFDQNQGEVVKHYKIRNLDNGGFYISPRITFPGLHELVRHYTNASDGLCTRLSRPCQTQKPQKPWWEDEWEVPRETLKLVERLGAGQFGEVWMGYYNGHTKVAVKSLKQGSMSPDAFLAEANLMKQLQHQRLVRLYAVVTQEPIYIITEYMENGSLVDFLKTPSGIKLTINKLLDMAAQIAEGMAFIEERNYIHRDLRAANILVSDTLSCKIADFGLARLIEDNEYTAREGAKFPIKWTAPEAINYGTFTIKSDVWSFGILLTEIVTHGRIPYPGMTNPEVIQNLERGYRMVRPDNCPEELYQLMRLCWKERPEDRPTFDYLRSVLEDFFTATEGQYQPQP

Cc1nc(Cc2cccc(C(F)(F)F)c2)sc1-c1ccc(C(N)=O)nc1 [TP-024n]
inactive: residual activity [1] 100% | residual activity [2] 100% | residual activity [3] 100% | residual activity [4] 77% | residual activity [5] 99% | residual activity [6] 100% | residual activity [7] 96% | inhibition [8] 3.99% | residual activity [9] 100% | residual activity [10] 92% | residual activity [11] 100% | residual activity [12] 88% | residual activity [13] 100% | residual activity [14] 83% | residual activity [15] 100% | residual activity [16] 100% | residual activity [17] 78% | residual activity [18] 100% | residual activity [19] 76% | residual activity [20] 91% | residual activity [21] 100% | residual activity [22] 100% | residual activity [23] 88% | residual activity [24] 100% | residual activity [25] 83% | residual activity [26] 100% | residual activity [27] 100% | residual activity [28] 100% | residual activity [29] 56% | residual activity [30] 94% | residual activity [31] 100% | residual activity [32] 97% | residual activity [33] 100% | residual activity [34] 76% | residual activity [35] 100% | residual activity [36] 100% | residual activity [37] 100% | residual activity [38] 100% | residual activity [39] 74% | residual activity [40] 100% | residual activity [41] 100% | residual activity [42] 100% | residual activity [43] 92%
active: residual activity [44] 35%

Cc1cc(-n2nc(Cc3cc(F)cc(C(F)(F)F)c3)nc2C)ccc1C(N)=O [TP-024]
inactive: residual activity [1] 93% | residual activity [2] 83% | residual activity [3] 100% | residual activity [4] 71% | residual activity [5] 100% | residual activity [6] 100% | residual activity [7] 100% | inhibition [8] 7.99% | residual activity [9] 91% | residual activity [10] 77% | residual activity [11] 100% | residual activity [12] 100% | residual activity [13] 100% | residual activity [14] 100% | residual activity [15] 97% | residual activity [16] 100% | residual activity [17] 79% | residual activity [18] 100% | residual activity [19] 94% | residual activity [20] 89% | residual activity [21] 100% | residual activity [22] 100% | residual activity [23] 100% | residual activity [24] 100% | residual activity [25] 83% | residual activity [26] 98% | residual activity [27] 100% | residual activity [28] 100% | residual activity [29] 70% | residual activity [30] 87% | residual activity [31] 100% | residual activity [32] 81% | residual activity [33] 100% | residual activity [34] 100% | residual activity [35] 100% | residual activity [36] 100% | residual activity [37] 100% | residual activity [38] 100% | residual activity [39] 67% | residual activity [40] 100% | residual activity [41] 100% | residual activity [42] 100% | residual activity [43] 100% | residual activity [44] 77%

Reference: ChEMBL document CHEMBL4507305, “Data for DCP probe TP-024” (2021)
